According to patent US7601673B2 (priority 2004, dated 2009):
Where two headings read alike, the source gives them in different places.

Test system: Phytophthora infestans
Type: in vivo, Phytophthora infestans on tomato plants
Settings: individual active compound, tomato leaves, protective, rated after 6 days

Row | Structure (SMILES) | Efficacy in % of the untreated control (1 ppm in the spray liquor) [%] | Efficacy in % of the untreated control (0.25 ppm in the spray liquor) [%] | Efficacy in % of the untreated control (4 ppm in the spray liquor) [%]
1 | Cc1c(Br)c2ccc(F)cc2n1S(=O)(=O)c1ncn(S(=O)(=O)N(C)C)n1 [I-62, Tab.7 (IA), N,N-dimethyl-3-(3-bromo-6-fluoro-2-methylindole-1-sulfonyl)-[1,2,4]triazole-1-sulfonamide] | 56 |  | 
2 | CC1CCN(c2c(-c3c(F)cc(F)cc3F)c(Cl)nc3ncnn23)CC1 [II, 5-chloro-7-(4-methylpiperidin-1-yl)-6-(2,4,6-trifluorophenyl)-[1,2,4]triazolo[1,5-a]pyrimidine] | 0 | 0 | 0
